Two compounds from US20260097047A1, “Small molecule inhibitors of the ribosome biogenesis factor NVL2” (Board of Regents, The University of Texas System, priority 2023, published 2026) can be followed below.

“And” between values parts separate entries of the source, which are not always exact repeats. Equal entries are not always repeated.

A short description of data set [1]: Pharmacokinetic studies in CD-1 female mice, intraperitoneal. It counts as in vivo, mouse. The method, then:
Plasma exposure was dose-dependent up to 35 mg/kg (IP injection) reaching a maximum concentration at 17.86 μM. These levels exceed the anti-proliferative IC99 of MM927 in cells expressing either human or mouse NVL. In a subsequent pharmacodynamic (PD) study, we asked if we could assess on-target NVL inhibition via a subsequent p53 and/or p21 induction in tumor xenografts in mice treated with MM927. We implanted HCT116 NVL^WT and NVL^R403W cells subcutaneously on either flank of the mice and evaluated the levels of p53 and p21 in either tumor at various time points after IP administration of 35 mg/kg of MM927.
Pharmacokinetic studies were performed by dosing 6-7 week old CD-1 female mice with analog MM927 formulated as 10% DMSO/10% Kolliphor EL/10% Solutal/70% D5W via the intraperitoneal route. Animals were euthanized in groups of three, blood was obtained by cheek bleeds at each time point (0, 10, 30, 90, 180, 360, 960 and 1440 minutes post dose) using the anticoagulant ACD (acidified citrate dextrose) and plasma isolated by centrifugation. For the dose escalation study, mice were dosed with 20 mg/kg, 35 mg/kg, or 60 mg/kg and blood was collected at 10, 180, and 720 minutes post dose. […] The resulting supernatants were evaluated by LC-MS/MS using a Sciex (Framingham, MA) 4500 Triple Quad coupled to a Shimadzu (Columbia, MD) Prominence LC. Briefly, MM927 was detected in multiple reaction monitoring mode (MRM) using the (m+1) transition 488.059/176.1. […] The concentrations of drug in each time-point sample were quantified using Analyst software (Sciex). […] The limit of quantitation (LOQ) was defined as the lowest concentration at which back calculation yielded a concentration within 20% of theoretical and which was above the LOD. Cmax and AUC values were calculated using the noncompartmental analysis tool of Phoenix WinNonLin (Certara/Pharsight, Sunnyvale, CA).

The target of another data set is T1, NVL (Homo sapiens, UniProt O15381).
T1 sequence (O15381 1-856): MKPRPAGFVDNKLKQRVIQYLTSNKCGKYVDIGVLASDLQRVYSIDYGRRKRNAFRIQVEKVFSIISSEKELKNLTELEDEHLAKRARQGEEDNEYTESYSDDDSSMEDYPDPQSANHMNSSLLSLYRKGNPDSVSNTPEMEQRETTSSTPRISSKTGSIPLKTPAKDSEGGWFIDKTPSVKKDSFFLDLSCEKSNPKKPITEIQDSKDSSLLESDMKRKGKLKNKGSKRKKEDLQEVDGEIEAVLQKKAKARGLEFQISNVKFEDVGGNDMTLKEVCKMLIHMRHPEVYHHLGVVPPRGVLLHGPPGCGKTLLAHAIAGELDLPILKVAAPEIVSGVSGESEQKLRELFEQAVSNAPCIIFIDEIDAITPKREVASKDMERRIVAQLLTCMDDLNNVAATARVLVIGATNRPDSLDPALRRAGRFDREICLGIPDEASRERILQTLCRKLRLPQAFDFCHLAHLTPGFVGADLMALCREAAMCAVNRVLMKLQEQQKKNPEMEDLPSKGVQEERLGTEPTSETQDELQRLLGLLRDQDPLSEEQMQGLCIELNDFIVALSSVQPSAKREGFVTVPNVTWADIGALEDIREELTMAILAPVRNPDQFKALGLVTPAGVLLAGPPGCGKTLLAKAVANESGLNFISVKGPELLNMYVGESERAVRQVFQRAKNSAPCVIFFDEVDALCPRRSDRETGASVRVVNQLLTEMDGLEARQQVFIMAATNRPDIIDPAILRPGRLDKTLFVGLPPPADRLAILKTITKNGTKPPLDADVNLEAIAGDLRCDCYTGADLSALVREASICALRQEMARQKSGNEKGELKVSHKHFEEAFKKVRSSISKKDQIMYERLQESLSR
The data set is described as follows: Viability of NVL^AID/AID cells relying on ectopic human NVL (Ph-IAA). Particulars: endogenous NVL degraded with Ph-IAA; read-out: IC50, cells expressing ectopic human NVL. It counts as cell-based. Further details: expressed in transfected cells; host or cells: HCT116 NVL^AID/AID cells (viral infection; 'mock infected' control). The text has this: Next, we investigated whether inhibitors of NVL could inhibit the growth of cell line derived xenografts tumors in mice, and whether systemic inhibition of NVL leads to specific toxicities. […] To test the potency of MM927 against mouse NVL within the same cell type, we ectopically expressed either human or mouse NVL in NVL^AID/AID cells. Treatment with Ph-IAA degrades the endogenous protein so that the cells must rely solely on ectopically expressed NVL. In the mock infected cells, degrading NVL^AID/AID by the addition of Ph-IAA reduced cell viability as expected, and the viability was completely rescued by expression of either ectopic mouse or human NVL.

For data set [2], the system named is p53 KO and p21 KO HCT116 cells. The data set is described as follows: Growth competition of p53 or p21 knockout versus control HCT116 cells. It counts as cell-based, human. From the text: To better understand how inhibition of NVL by MM017 leads to cell death, we performed a genome wide pooled CRISPR/Cas9 knockout screen in HCT116 cells using a library of guide RNAs targeting 19,114 genes. Cells were pulsed intermittently with vehicle or MM017 over 21 days, at which point MM017 treated cells had undergone 9.79 fewer population doublings. Massively parallel sequencing of PCR products amplified from genomic DNA was used to determine relative levels of sgRNA sequences to infer the relative impact of each gene on compound sensitivity. […] To confirm whether p53 and p21 are required for the anti-proliferative activity of MM017, we performed a growth competition experiment between cells expressing ZsGreen with either p53 or p21 knockout (KO) and control cells expressing mCherry. Without treatment, the ratio between green and red cells was unchanged over time.

In general, half-life refers to the time in which the quantity being followed falls by half. Broadly, the Cmax is the highest concentration seen after dosing. Broadly, the IC50 is the concentration at which inhibition is half-maximal. In turn, `CC#CCN1C(=O)c2ccc(F)cc2Sc2cc(NC(=O)c3ccc4oc(=O)n(C)c4c3)ccc21` [MM927, N-(10-(But-2-yn-1-yl)-3-fluoro-11-oxo-10,11-dihydrodibenzo[b,f][1,4]thiazepin-7-yl)-3-methyl-2-oxo-2,3-dihydrobenzo[d]oxazole-5-carboxamide] displayed a maximum plasma concentration in data set [1] (35 mg/kg IP injection, dose escalation) of 17.86 µM. The half-life in data set [1] (female, CD-1, mouse, plasma, 10 mg/kg intraperitoneal (IP) injection, read-out: elimination half-life) stood at 1.69 h. The highest concentration (Cmax) in data set [1] (female, CD-1, mouse, plasma, 10 mg/kg intraperitoneal (IP) injection, read-out: peak plasma levels (Cmax)) is 2510 ng/mL and 5.15 µM. Besides, at NVL, the IC50 came out at 51 nM.
On to `COCCN1C(=O)c2ccccc2Sc2cc(NC(=O)c3ccoc3)ccc21` [MM017], for which the “enrichment of p53 or p21 KO cells in growth competition” value in data set [2] is listed as “dose-dependent enrichment of either p53 or p21 KO cells”.
